Results taken from US8476264B2, “N-(3-(2-amino-6,6-difluoro-4,4A,5,6,7,7A-hexahydro-cyclopenta[E][1,3]oxazin-4-yl)-phenylamides as BACE1 inhibitors” (Hoffmann-La Roche Inc., priority 2011, dated 2013).

Legend:
[1] = target: T1, P-gp (P-glycoprotein, human MDR1) (Homo sapiens, UniProt P08183); test: P-gp (P-glycoprotein) assay, bidirectional transcellular transport in LLC-PK1 and L-MDR1 cells; assay type: in vitro ADME; conditions: ER = PappBA/PappAB, read-out: P-gp human, efflux ratio: substrate category
T1 construct: host or cells: LLC-PK1 (porcine kidney epithelial) cells, L-MDR1
Description: P-gp (P-glycoprotein) Assay Cell Lines Used for Transport Experiments
The LLC-PK1 cell line (ATCC #CL-101) is a porcine kidney epithelial cell line. The MDR1 (Human multidrug resistance protein 1) transfected cell lines were obtained from Dr. A. Schinkel, The Netherlands Cancer Institute (Amsterdam, The Netherlands). All cell lines were cultured on permeable inserts (96-insert plates Millipore, 0.11 cm^2 area, pore size 0.4 μm) at 0.73*10^6 cells/ml. Transport measurements were performed at day 4 after seeding. Tightness of the cell monolayer was controlled via the permeability of the extracellular marker lucifer yellow (10 μM).
In Vitro Transport Experiments
Bidirectional transcellular transport using LLC-PK1 and L-MDR1 LLC-PK1 cells exogenously expressing the human MDR1)
The experiments were performed on a TECAN automated liquid handling system. Briefly, medium was removed from all compartments and the medium of receiver side was replaced with culture medium. The trans-cellular transport measurements were initiated by adding the substrate together with extracellular marker lucifer yellow to the donor side. Inhibitors were added to both sides (1 μM elacridar). Transport experiments were performed both in the basolateral-to-apical and apical-to-basolateral directions with 3 wells each. The plates were incubated at 37° C. and 5% CO2 in a Liconic incubator. Samples were taken from the donor and the opposite (acceptor) side after 2 hours incubation. Concentrations of substrate in both compartments were determined by scintillation counting (digoxin) or by LC-MS/MS. The extracellular marker (lucifer yellow) was quantified using a spectrafluor plus reader at 430/535 nm (Ex/Em). In each experiment 3 different inserts were used for each condition and a mean was calculated.
Bidirectional transcellular transport using LLC-PK1 and L-MDR1 cells
For the transcellular transport, the following equation was used for data evaluation: […]
Where Papp, A, C0, and dQ/dt represent the apparent permeability, the filter surface area, the initial concentration, and the amount transported per time period, respectively.
Transport efflux ratios (ER) were calculated as follows: […]
Where PappBA is the permeability value in the basolateral-to-apical direction, and PappAB the permeability value in the apical-to-basolateral direction. Papp were not corrected for flux of the extracellular marker lucifer yellow, which was used to assess the quality of the cell monolayers.

[2] = target: T2, cathepsin D (from human liver) (Homo sapiens, UniProt P07339); test: Cathepsin D fluorescent substrate kinetic assay; assay type: biochemical; conditions: pH 5.5, substrate […]-MR121
T2 construct: cathepsin D (from human liver, Calbiochem) diluted in assay buffer; purchased Calbiochem; host or cells: purified from human liver
Source text: Cathepsin D and Cathepsin E Fluorescent Substrate Kinetic Assays
The MR121 fluorescence assays described below are based on the fact that MR121 forms a non-fluorescent ground state complex with tryptophan. In solution this formation occurs at millimolar concentrations of tryptophan. The mechanism can be used to design a generic biochemical assay for proteases. A substrate peptide is labeled at the N-terminus with tryptophan and at the C-terminus with the fluorophore MR121 (for cathepsin D the 10 amino acid peptide […]-MR121 was used; for cathepsin E, MR121-[…] was used). In absence of protease activity, the substrates remain intact and the MR121 fluorescence is reduced by the high local Trp-concentration. If the substrates are cleaved by the enzymes the MR121 fluorescence is recovered.
The fluorescent substrate cathepsin D and cathepsin E kinetic assays were performed at room temperature in 384-well microtiter plates (black with clear flat bottom, non binding surface plates from Corning) in a final volume of 51 μl. The test compounds were serially diluted in DMSO (15 concentrations, ⅓ dilution steps) and 1 μl of diluted compounds were mixed for 10 min with 40 μl of cathepsin D (from human liver, Calbiochem) diluted in assay buffer (100 mM sodium acetate, 0.05% BSA, pH 5.5; final concentration: 200 nM) or with 40 μl of recombinant human cathepsin E (R&D Systems) diluted in assay buffer (100 mM sodium acetate, 0.05% BSA, pH 4.5; final concentration: 0.01 nM). After addition of 10 μl of the cathepsin D substrate […]-MR121 diluted in cathepsin D assay buffer (final concentration: 300 nM) or […] cathepsin E substrate MR121-[…] diluted in cathepsin E assay buffer (final concentration: 300 nM), the plates were strongly shaken for 2 minutes. The enzymatic reaction was followed in a plate: vision reader (Perkin Elmer) (excitation wavelength: 630 nm; emission: 695 nm) for at least 30 minutes in a kinetic measurement detecting an increase of MR121 fluorescence during the reaction time. The slope in the linear range of the kinetic was calculated and the IC50 of the test compounds were determined using a four parameter equation for curve fitting.

CYP2D6 = target: T3, CYP2D6 (Homo sapiens, UniProt P10635); test: CYP inhibition assay, CYP2D6; assay type: in vitro ADME; conditions: human liver microsomes, dextromethorphan O-demethylase; read-out: CYP IC50 2D6
T3 construct: 0.2 mg/ml pooled human liver microsomes; from tissue; host or cells: pooled human liver microsomes
Description: (§1) Inhibition of cytochromes P450 (CYPs) 2C9, 2D6 and 3A4 was assessed using human liver microsomes and CYP-selective substrate metabolism reactions. 50 μl incubations were made up containing (finally) 0.2 mg/ml pooled human liver microsomes, 5 μM substrate (diclofenac for CYP2C9 [4′ hydroxylase], dextromethorphan for CYP2D6 [O-demethylase] or midazolam for CYP3A4 [1′ hydroxylase]), 0.25 μL DMSO containing test inhibitor and NADPH regenerating system. Test inhibitor concentrations of 50, 16.7, 5.6, 1.9, 0.6 and 0.2 μM were assessed in singlicate. Incubations were pre-warmed to 37° C. for 10 minutes before initiation by addition of NADPH regenerating system. Incubations were quenched after 5 minutes (20 minutes for dextromethorphan) by addition of 50 μl cold acetonitrile containing 20 ng/ml 4-OH-diclofenac-13C6, 20 ng/mL dextrorphan-D3 and 20 ng/mL 1-OH-midazolam-D4. Quenched incubates were stored at −20° C. for at least 1 hour before centrifugation (20,000×g, 20 minutes). Supernatants were removed and diluted 1:1 with water prior to analysis using a RapidFire sample injector system and API4000 mass spectrometer. Peak areas for substrate, metabolite and stable-labelled metabolite standard were determined using MS/MS. The peak area ratios between the metabolite generated by the enzymatic reaction and the internal standard were used in subsequent calculations. The percentage of (DMSO) control activity was calculated for each incubate and IC50 values estimated by non-linear regression. Sulfaphenazole, quinidine or ketoconazole were tested in each CYP2C9, CYP2D6 or CYP3A4 inhibition experiment, respectively, to ensure assay sensitivity and reproducibility. (Validated assays for human cytochrome P450 activities, R. L. Walsky and R. S. Obach, Drug Metabolism and Disposition 32: 647-660, 2004. and S. Fowler and H. Zhang, The AAPS Journal, Vol. 10, No. 2, 410-424, 2008.)

CYP2C9 = target: T4, CYP2C9 (Homo sapiens, UniProt P11712); test: CYP inhibition assay, CYP2C9; assay type: in vitro ADME; conditions: human liver microsomes, diclofenac 4' hydroxylase; read-out: CYP IC50 2C9
T4 construct: 0.2 mg/ml pooled human liver microsomes; from tissue; host or cells: pooled human liver microsomes
Description: as §1

T4 sequence (P11712 whole entry): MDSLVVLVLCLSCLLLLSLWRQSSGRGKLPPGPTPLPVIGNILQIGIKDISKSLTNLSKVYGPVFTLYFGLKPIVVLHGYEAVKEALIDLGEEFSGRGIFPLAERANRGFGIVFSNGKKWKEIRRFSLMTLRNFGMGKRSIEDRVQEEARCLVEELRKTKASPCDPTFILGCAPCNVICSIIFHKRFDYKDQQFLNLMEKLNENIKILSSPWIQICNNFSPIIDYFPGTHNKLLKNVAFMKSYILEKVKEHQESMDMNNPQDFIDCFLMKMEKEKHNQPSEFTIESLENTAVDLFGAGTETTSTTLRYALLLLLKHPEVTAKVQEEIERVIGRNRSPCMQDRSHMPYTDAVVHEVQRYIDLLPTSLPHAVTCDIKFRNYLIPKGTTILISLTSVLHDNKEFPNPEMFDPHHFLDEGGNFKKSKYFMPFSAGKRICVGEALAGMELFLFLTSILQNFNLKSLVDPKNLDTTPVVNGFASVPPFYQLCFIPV
T2 sequence (P07339 65-162 limits assumed): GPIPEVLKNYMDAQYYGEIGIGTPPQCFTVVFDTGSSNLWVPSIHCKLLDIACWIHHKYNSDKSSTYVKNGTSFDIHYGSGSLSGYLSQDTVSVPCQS
T2 sequence (P07339 169-412 limits assumed): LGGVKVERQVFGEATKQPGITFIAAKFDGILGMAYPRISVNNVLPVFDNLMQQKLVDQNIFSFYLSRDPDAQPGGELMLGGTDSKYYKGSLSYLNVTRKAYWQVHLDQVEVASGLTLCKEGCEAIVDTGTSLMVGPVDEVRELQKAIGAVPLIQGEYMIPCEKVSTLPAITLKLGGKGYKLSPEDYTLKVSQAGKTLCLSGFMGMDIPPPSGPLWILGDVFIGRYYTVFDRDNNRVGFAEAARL
T1 sequence (P08183 whole entry): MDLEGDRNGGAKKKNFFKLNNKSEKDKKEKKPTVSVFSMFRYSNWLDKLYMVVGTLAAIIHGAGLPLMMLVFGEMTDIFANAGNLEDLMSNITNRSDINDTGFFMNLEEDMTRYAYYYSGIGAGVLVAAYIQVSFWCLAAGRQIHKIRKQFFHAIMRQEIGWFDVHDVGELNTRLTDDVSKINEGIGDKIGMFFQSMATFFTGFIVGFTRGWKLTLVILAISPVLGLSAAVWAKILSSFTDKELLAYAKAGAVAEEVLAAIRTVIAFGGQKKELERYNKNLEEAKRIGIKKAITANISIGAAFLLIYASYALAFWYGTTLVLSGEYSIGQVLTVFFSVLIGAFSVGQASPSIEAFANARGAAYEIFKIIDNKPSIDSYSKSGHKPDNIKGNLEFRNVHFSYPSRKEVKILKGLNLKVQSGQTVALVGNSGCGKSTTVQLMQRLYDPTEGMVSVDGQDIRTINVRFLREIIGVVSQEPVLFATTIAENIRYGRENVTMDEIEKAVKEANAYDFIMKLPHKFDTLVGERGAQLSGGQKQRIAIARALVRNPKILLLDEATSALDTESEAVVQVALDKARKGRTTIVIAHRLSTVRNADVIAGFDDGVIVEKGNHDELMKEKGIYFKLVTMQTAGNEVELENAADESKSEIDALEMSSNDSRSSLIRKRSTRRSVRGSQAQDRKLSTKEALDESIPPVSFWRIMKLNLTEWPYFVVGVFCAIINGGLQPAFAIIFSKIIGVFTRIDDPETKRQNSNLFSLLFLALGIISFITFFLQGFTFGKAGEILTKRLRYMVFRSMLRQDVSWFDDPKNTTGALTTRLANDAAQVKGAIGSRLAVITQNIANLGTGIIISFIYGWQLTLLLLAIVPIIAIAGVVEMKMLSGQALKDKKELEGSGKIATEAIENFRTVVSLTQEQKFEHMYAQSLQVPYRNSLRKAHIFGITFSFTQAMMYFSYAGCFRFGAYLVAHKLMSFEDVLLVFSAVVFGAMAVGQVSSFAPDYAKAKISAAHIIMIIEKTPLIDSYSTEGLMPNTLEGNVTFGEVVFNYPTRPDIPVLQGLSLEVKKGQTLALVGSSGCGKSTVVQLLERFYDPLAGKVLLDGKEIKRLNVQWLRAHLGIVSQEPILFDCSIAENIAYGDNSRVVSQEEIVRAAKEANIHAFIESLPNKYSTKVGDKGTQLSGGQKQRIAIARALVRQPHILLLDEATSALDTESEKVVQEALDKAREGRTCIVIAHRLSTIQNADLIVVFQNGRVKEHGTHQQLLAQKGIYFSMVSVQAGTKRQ
T3 sequence (P10635 whole entry): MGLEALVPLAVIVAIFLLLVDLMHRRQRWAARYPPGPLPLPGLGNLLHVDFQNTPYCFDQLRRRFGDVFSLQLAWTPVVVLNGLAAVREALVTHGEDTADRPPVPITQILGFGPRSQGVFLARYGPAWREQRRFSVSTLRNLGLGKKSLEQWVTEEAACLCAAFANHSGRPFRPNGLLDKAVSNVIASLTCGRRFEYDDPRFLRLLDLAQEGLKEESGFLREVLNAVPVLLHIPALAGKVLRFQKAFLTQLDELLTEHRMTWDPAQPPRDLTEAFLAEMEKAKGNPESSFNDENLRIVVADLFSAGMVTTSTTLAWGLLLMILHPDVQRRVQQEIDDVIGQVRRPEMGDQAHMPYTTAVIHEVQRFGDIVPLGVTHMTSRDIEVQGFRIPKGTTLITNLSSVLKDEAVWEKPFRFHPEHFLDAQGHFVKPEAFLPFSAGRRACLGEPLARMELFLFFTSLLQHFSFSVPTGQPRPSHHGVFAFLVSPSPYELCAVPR

| SMILES | efflux ratio at 2 h [1] | IC50 [2] | IC50 (CYP2D6) | IC50 (CYP2C9) |
| --- | --- | --- | --- | --- |
| N#Cc1ccc(C(=O)Nc2ccc(F)c([C@@]3(C(F)F)N=C(N)O[C@@H]4CC(F)(F)C[C@@H]43)c2)nc1 [Example 36, 5-Cyano-pyridine-2-carboxylic acid [(S)-3-((1R,2R)-2-amino-4-difluoromethyl-6,6-difluoro-4,4a,5,6,7,7a-hexahydro-cyclopenta[e][1,3]oxazin-4-yl)-4-fluoro-phenyl]-amide] | < 3 | > 200 µM | > 10 µM | > 10 µM |
| NC1=N[C@](CF)(c2cc(NC(=O)c3cnc(C(F)F)cn3)ccc2F)[C@H]2CC(F)(F)C[C@H]2O1 [Example 24, 5-Difluoromethyl-pyrazine-2-carboxylic acid [(S)-3-((1R,2R)-2-amino-6,6-difluoro-4-fluoromethyl-4,4a,5,6,7,7a-hexahydro-cyclopenta[e][1,3]oxazin-4-yl)-4-fluoro-phenyl]-amide] | < 3 | > 200 µM | > 10 µM | > 10 µM |
| COc1cnc(C(=O)Nc2ccc(F)c([C@@]3(C(F)F)N=C(N)O[C@@H]4CC(F)(F)C[C@@H]43)c2)cn1 [Example 42, 5-Methoxy-pyrazine-2-carboxylic acid [(S)-3-((1R,2R)-2-amino-4-difluoromethyl-6,6-difluoro-4,4a,5,6,7,7a-hexahydro-cyclopenta[e][1,3]oxazin-4-yl)-4-fluoro-phenyl]-amide] | < 3 | > 150 µM | > 10 µM | > 10 µM |
| N#Cc1ccc(C(=O)Nc2ccc(F)c([C@@]3(CF)N=C(N)O[C@@H]4CC(F)(F)C[C@@H]43)c2)nc1 [Example 3, 5-Cyano-pyridine-2-carboxylic acid [(S)-3-((1R,2R)-2-amino-6,6-difluoro-4-fluoromethyl-4,4a,5,6,7,7a-hexahydro-cyclopenta[e][1,3]oxazin-4-yl)-4-fluoro-phenyl]-amide] | < 3 | > 200 µM | > 10 µM | > 10 µM |
| NC1=N[C@](CF)(c2cc(NC(=O)c3ccc(F)cn3)ccc2F)[C@H]2CC(F)(F)C[C@H]2O1 [Example 7, 5-Fluoro-pyridine-2-carboxylic acid [(S)-3-((1R,2R)-2-amino-6,6-difluoro-4-fluoromethyl-4,4a,5,6,7,7a-hexahydro-cyclopenta[e][1,3]oxazin-4-yl)-4-fluoro-phenyl]-amide] | < 3 | 93 µM | > 10 µM | > 10 µM |
